Source: PubChem BioAssay (NCI)
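A five-concentration, 48-hour dose response in 96-well plates underlies each endpoint, interpolated linearly between surrounding concentrations. Definition used: TGI = concentration required for complete inhibition of growth.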

Key:
Assay in all cases: DTP human tumour cell line panel, 48 h
SW-620 colon = tested on: SW-620 colon
COLO 205 colon = tested on: COLO 205 colon
HT29 colon = tested on: HT29 colon
M14 melanoma = tested on: M14 melanoma
NCI-H460 lung = tested on: NCI-H460 lung
OVCAR-3 ovarian = tested on: OVCAR-3 ovarian
UACC-257 melanoma = tested on: UACC-257 melanoma
SF-539 CNS = tested on: SF-539 CNS
HL-60(TB) leukemia = tested on: HL-60(TB) leukemia
SF-295 CNS = tested on: SF-295 CNS
SK-MEL-28 melanoma = tested on: SK-MEL-28 melanoma
LOX IMVI melanoma = tested on: LOX IMVI melanoma
SK-MEL-5 melanoma = tested on: SK-MEL-5 melanoma
HOP-92 NSCLC = tested on: HOP-92 NSCLC
MOLT-4 leukemia = tested on: MOLT-4 leukemia
TK-10 renal = tested on: TK-10 renal
IGROV1 ovarian = tested on: IGROV1 ovarian
NCI-H226 lung = tested on: NCI-H226 lung
SF-268 CNS = tested on: SF-268 CNS
SN12C renal = tested on: SN12C renal
MDA-MB-231 breast = tested on: MDA-MB-231 breast
EKVX NSCLC = tested on: EKVX NSCLC
A498 renal = tested on: A498 renal
HOP-62 NSCLC = tested on: HOP-62 NSCLC
SNB-75 CNS = tested on: SNB-75 CNS
RXF 393 renal = tested on: RXF 393 renal
OVCAR-4 ovarian = tested on: OVCAR-4 ovarian
OVCAR-5 ovarian = tested on: OVCAR-5 ovarian
CAKI-1 renal = tested on: CAKI-1 renal
K-562 leukemia = tested on: K-562 leukemia
CCRF-CEM leukemia = tested on: CCRF-CEM leukemia
MDA-N = tested on: MDA-N
OVCAR-8 ovarian = tested on: OVCAR-8 ovarian
NCI-H522 lung = tested on: NCI-H522 lung
NCI-H23 lung = tested on: NCI-H23 lung
SK-MEL-2 melanoma = tested on: SK-MEL-2 melanoma
HCT-15 colon = tested on: HCT-15 colon
786-0 renal = tested on: 786-0 renal
SK-OV-3 ovarian = tested on: SK-OV-3 ovarian
UACC-62 melanoma = tested on: UACC-62 melanoma
PC-3 prostate = tested on: PC-3 prostate
DU-145 prostate = tested on: DU-145 prostate
MDA-MB-435 = tested on: MDA-MB-435
UO-31 renal = tested on: UO-31 renal
NCI/ADR-RES ovarian = tested on: NCI/ADR-RES ovarian
MALME-3M melanoma = tested on: MALME-3M melanoma
ACHN renal = tested on: ACHN renal
MCF7 breast = tested on: MCF7 breast
SR leukemia = tested on: SR leukemia
HCT-116 colon = tested on: HCT-116 colon
HS 578T breast = tested on: HS 578T breast
KM12 colon = tested on: KM12 colon
A549 NSCLC = tested on: A549 NSCLC
U251 CNS = tested on: U251 CNS
SNB-19 CNS = tested on: SNB-19 CNS
RPMI-8226 leukemia = tested on: RPMI-8226 leukemia
T-47D breast = tested on: T-47D breast
BT-549 breast = tested on: BT-549 breast
HCC-2998 colon = tested on: HCC-2998 colon

CN(CC(=O)O)c1ncc2c(n1)CCCC2 was tested. Which TGI (SW-620 colon) did it give?
Its TGI is > 100 µM.

And the TGI (COLO 205 colon)?
Its TGI is > 100 µM.

What about the TGI (HT29 colon) of the same molecule?
Its TGI is > 100 µM.

And the TGI (M14 melanoma)?
Its TGI is > 100 µM.

What about the TGI (NCI-H460 lung) of the same molecule?
Its TGI is > 100 µM.

What about the TGI (OVCAR-3 ovarian) of the same molecule?
The TGI was > 100 µM.

And the TGI (UACC-257 melanoma)?
Its TGI is > 100 µM.

And the TGI (SF-539 CNS)?
The TGI was > 100 µM.

And the TGI (HL-60(TB) leukemia)?
The TGI was > 100 µM.

What about the TGI (SF-295 CNS) of the same molecule?
Its TGI is > 100 µM.

What about the TGI (SK-MEL-28 melanoma) of the same molecule?
Its TGI is > 100 µM.

What about the TGI (LOX IMVI melanoma) of the same molecule?
Its TGI is > 100 µM.

And the TGI (SK-MEL-5 melanoma)?
Its TGI is > 100 µM.

What about the TGI (HOP-92 NSCLC) of the same molecule?
The TGI was > 100 µM.

What about the TGI (MOLT-4 leukemia) of the same molecule?
The TGI was > 100 µM.

And the TGI (TK-10 renal)?
Its TGI is > 100 µM.

And the TGI (IGROV1 ovarian)?
Its TGI is > 100 µM.

What about the TGI (NCI-H226 lung) of the same molecule?
The TGI was > 100 µM.

And the TGI (SF-268 CNS)?
Its TGI is > 100 µM.

What about the TGI (SN12C renal) of the same molecule?
Its TGI is > 100 µM.

What about the TGI (MDA-MB-231 breast) of the same molecule?
The TGI was > 100 µM.

What about the TGI (EKVX NSCLC) of the same molecule?
Its TGI is > 100 µM.

What about the TGI (A498 renal) of the same molecule?
The TGI was > 100 µM.

What about the TGI (HOP-62 NSCLC) of the same molecule?
Its TGI is > 100 µM.

What about the TGI (SNB-75 CNS) of the same molecule?
The TGI was > 100 µM.

What about the TGI (RXF 393 renal) of the same molecule?
The TGI was > 100 µM.

What about the TGI (OVCAR-4 ovarian) of the same molecule?
The TGI was > 100 µM.

And the TGI (OVCAR-5 ovarian)?
Its TGI is > 100 µM.

What about the TGI (CAKI-1 renal) of the same molecule?
Its TGI is > 100 µM.

What about the TGI (K-562 leukemia) of the same molecule?
The TGI was > 100 µM.

And the TGI (CCRF-CEM leukemia)?
Its TGI is > 100 µM.

What about the TGI (MDA-N) of the same molecule?
The TGI was > 100 µM.

What about the TGI (OVCAR-8 ovarian) of the same molecule?
The TGI was > 100 µM.

And the TGI (NCI-H522 lung)?
The TGI was > 100 µM.

And the TGI (NCI-H23 lung)?
The TGI was > 100 µM.

What about the TGI (SK-MEL-2 melanoma) of the same molecule?
Its TGI is > 100 µM.

What about the TGI (HCT-15 colon) of the same molecule?
The TGI was > 100 µM.

And the TGI (786-0 renal)?
The TGI was > 100 µM.

What about the TGI (SK-OV-3 ovarian) of the same molecule?
Its TGI is > 100 µM.

And the TGI (UACC-62 melanoma)?
Its TGI is > 100 µM.

And the TGI (PC-3 prostate)?
The TGI was > 100 µM.

And the TGI (DU-145 prostate)?
Its TGI is > 100 µM.

What about the TGI (MDA-MB-435) of the same molecule?
Its TGI is > 100 µM.

What about the TGI (UO-31 renal) of the same molecule?
The TGI was > 100 µM.

And the TGI (NCI/ADR-RES ovarian)?
The TGI was > 100 µM.

What about the TGI (MALME-3M melanoma) of the same molecule?
Its TGI is > 100 µM.

And the TGI (ACHN renal)?
Its TGI is > 100 µM.

What about the TGI (MCF7 breast) of the same molecule?
Its TGI is > 100 µM.

What about the TGI (SR leukemia) of the same molecule?
The TGI was > 100 µM.

And the TGI (HCT-116 colon)?
The TGI was > 100 µM.

What about the TGI (HS 578T breast) of the same molecule?
Its TGI is > 100 µM.

What about the TGI (KM12 colon) of the same molecule?
Its TGI is > 100 µM.

What about the TGI (A549 NSCLC) of the same molecule?
Its TGI is > 100 µM.

And the TGI (U251 CNS)?
The TGI was > 100 µM.

And the TGI (SNB-19 CNS)?
Its TGI is > 100 µM.

And the TGI (RPMI-8226 leukemia)?
The TGI was > 100 µM.

What does the source list for Cc1cc(S(=O)(=O)Nc2n[nH]c(N)n2)c(SCC(=O)O)cc1Cl?
TGI (SW-620 colon): > 10 µM; TGI (COLO 205 colon): > 10 µM; TGI (HT29 colon): > 10 µM; TGI (M14 melanoma): > 10 µM; TGI (NCI-H460 lung): > 10 µM; TGI (OVCAR-3 ovarian): > 10 µM; TGI (UACC-257 melanoma): > 10 µM; TGI (SF-539 CNS): > 10 µM; TGI (HL-60(TB) leukemia): > 10 µM; TGI (SF-295 CNS): > 10 µM; TGI (SK-MEL-28 melanoma): > 10 µM; TGI (LOX IMVI melanoma): > 10 µM; TGI (SK-MEL-5 melanoma): > 10 µM; TGI (HOP-92 NSCLC): > 10 µM; TGI (MOLT-4 leukemia): > 10 µM; TGI (TK-10 renal): > 10 µM; TGI (IGROV1 ovarian): > 10 µM; TGI (NCI-H226 lung): > 10 µM; TGI (SF-268 CNS): > 10 µM; TGI (SN12C renal): > 10 µM; TGI (EKVX NSCLC): > 10 µM; TGI (A498 renal): > 10 µM; TGI (HOP-62 NSCLC): > 10 µM; TGI (T-47D breast): > 10 µM; TGI (SNB-75 CNS): > 10 µM; TGI (RXF 393 renal): > 10 µM; TGI (OVCAR-4 ovarian): > 10 µM; TGI (OVCAR-5 ovarian): > 10 µM; TGI (CAKI-1 renal): > 10 µM; TGI (K-562 leukemia): > 10 µM; TGI (CCRF-CEM leukemia): > 10 µM; TGI (MDA-N): > 10 µM; TGI (OVCAR-8 ovarian): > 10 µM; TGI (NCI-H522 lung): > 10 µM; TGI (NCI-H23 lung): > 10 µM; TGI (SK-MEL-2 melanoma): > 10 µM; TGI (HCT-15 colon): > 10 µM; TGI (786-0 renal): > 10 µM; TGI (SK-OV-3 ovarian): > 10 µM; TGI (PC-3 prostate): > 10 µM; TGI (DU-145 prostate): > 10 µM; TGI (BT-549 breast): > 10 µM; TGI (UO-31 renal): > 10 µM; TGI (HCC-2998 colon): > 10 µM; TGI (NCI/ADR-RES ovarian): > 10 µM; TGI (MALME-3M melanoma): > 10 µM; TGI (ACHN renal): > 10 µM; TGI (MCF7 breast): > 10 µM; TGI (SR leukemia): > 10 µM; TGI (HCT-116 colon): > 10 µM; TGI (HS 578T breast): > 10 µM; TGI (KM12 colon): > 10 µM; TGI (A549 NSCLC): > 10 µM; TGI (U251 CNS): > 10 µM; TGI (SNB-19 CNS): > 10 µM; TGI (RPMI-8226 leukemia): > 10 µM
